Test results from US9206200B2, “N-linked lactam M1 receptor positive allosteric mogulators” (Merck Sharp & Dohme Corp., priority 2011, dated 2015).
Where two headings read alike, the source gives them in different places.

Biological target: T1, acetylcholine muscarinic M1 receptor (Homo sapiens, UniProt P11229)
T1 construct: expressed in transfected cells; host or cells: CHOnfat cells (CHO cells with an NFAT reporter) expressing hM1, kept under Geneticin selection
T1 sequence (P11229 1-460): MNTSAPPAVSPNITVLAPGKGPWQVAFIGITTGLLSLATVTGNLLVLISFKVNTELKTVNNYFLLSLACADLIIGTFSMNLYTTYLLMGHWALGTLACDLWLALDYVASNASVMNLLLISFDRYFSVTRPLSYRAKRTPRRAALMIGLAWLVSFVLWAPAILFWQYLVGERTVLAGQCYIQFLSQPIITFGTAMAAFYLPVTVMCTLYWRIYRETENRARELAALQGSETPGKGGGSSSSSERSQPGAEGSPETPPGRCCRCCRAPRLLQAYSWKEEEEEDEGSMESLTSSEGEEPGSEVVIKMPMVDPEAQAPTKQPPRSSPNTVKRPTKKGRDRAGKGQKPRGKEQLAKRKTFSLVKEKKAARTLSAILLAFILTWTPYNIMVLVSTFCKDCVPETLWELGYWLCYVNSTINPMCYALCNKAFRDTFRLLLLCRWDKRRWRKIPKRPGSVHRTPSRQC
Experiment: muscarinic FLIPR assay: intracellular calcium in CHOnfat/hM1 cells, potentiation of EC20 acetylcholine
Format: cell-based
Conditions: EC20 acetylcholine (3 nM final)
Experimental: The assay studies the effect of one or several concentrations of test compounds on basal or acetylcholine-stimulated Ca^2+ levels using FLIPR.
Compounds are prepared and subjected to a preincubation period of […]. Thereafter, a single EC20 concentration of acetylcholine is added to each well (3 nM final). The intracellular Ca^2+ level of each sample is measured and compared to an acetylcholine control to determine any modulatory activity.
Cells: CHOnfat/hM1, hM2, hM3 or hM4 cells are plated 24 hr before the assay at a density of 18,000 cells/well (100 μL) in a 384 well plate. CHOnfat/hM1 and CHOnfat/hM3 Growth Medium: 90% DMEM (Hi Glucose); 10% HI FBS; 2 mM L-glutamine; 0.1 mM NEAA; Pen-Strep; and 1 mg/ml Geneticin, are added. For M2Gqi5CHOnfat and M4Gqi5CHOnfat cells, an additional 600 ug/ml hygromycin is added.
Equipment: 384 well plate, 120 μl, addition plate; 96-well Whatman 2 ml Uniplate Incubator, 37° C., 5% CO2; Skatron EMBLA-384 Plate Washer; Multimek Pipetting System; Genesis Freedom 200 System; Mosquito System; Temo Nanolitre Pipetting System; and FLIPR^384 Fluorometric Imaging Plate Reader System are used.
Buffers. Assay Buffer: Hanks Balanced Salt Solution, with 20 mM Hepes, 2.5 mM Probenecid (Sigma P-8761) first dissolved in 1 N NaOH, 1% Bovine Serum Albumin (Sigma A-9647). Dye Loading Buffer: Assay Buffer plus 1% Fetal Bovine Serum and Fluo-4AM/Pluronic Acid Mixture. 2 mM Fluo-4AM ester stock in DMSO (Molecular Probes F-14202) Concentration of 2 μM in buffer for a final concentration of 1 μM in Assay. 20% Pluronic Acid Solution stock, with concentration of 0.04% in Buffer, 0.02% in Assay.
65 μL of 2 mM Fluo-4AM are mixed with 130 μL of 20% Pluronic Acid. The resulting solution and 650 μL FBS is added to the assay buffer for a total volume of 65 mL. Positive Controls: 4-Br-A23187: 10 mM in DMSO; final concentration 10 μM. Acetylcholine: 10 mM in water, working stock at both 20 μM and 30 μM in assay buffer, final concentration of 10 μM. This is used to check the maximum stimulation of the CHOK1/hM1 cells. 20 μM (2×) acetylcholine is added in the preincubation part of the assay, and the 30 μM (3×) stock is added in the second part. (EC20)Acetylcholine: 10 mM in water, working stock of 9 nM (3×), and final concentration in assay is 3 nM. This is used after the preincubation with test compounds. Addition of the EC20 Acetylcholine to each well with a test compound will ascertain any modulator activity. 24 wells contain 3 nM Acetylcholine alone as a control.
Determining Activity of Putative Compounds:
Screening Plate Compounds are titrated in 96-well plates (columns 2-11), 100% DMSO, started at a concentration of 15 mM (150× stock concentration), and 3-fold serial dilutions using Genesis Freedom200 System. Four 96-well plates are combined into a 384-well plate using Mosquito Nanolitre Pipetting System by transferring 1 μl of serial diluted compounds to each well, and 1 mM acetylcholine (100× stock concentration) were added as a control. Using Temo, 49 μl assay buffer is added to each well of the 384-well plate right before assay.
In a 96-well Whatman 2 ml Uniplate, 9 nM Acetylcholine (3×) is pipetted into wells corresponding to the screening compounds, and into control wells. The 30 μM acetylcholine control (3×) is added into control wells, and the 3× agonist plate is transferred into a 384 well plate.
Cells are washed three times with 100 μL of buffer, leaving […] of buffer in each well. Using Multimek, 30 μL of Dye Loading Buffer is added into each well and incubated at 37° C., 5% CO2 for up to one hr.
After 60 min, the cells are washed three times with 100 μL of buffer, leaving 30 μL of buffer in each well. The cell plate, screening plate, and agonist addition plates are placed on the platform in the FLIPR and the door closed. A signal test to check background fluorescence and basal fluorescence signal is performed. Laser intensity is adjusted if necessary.

[1] = Table 2, CHOnfat/hM1 cells, FLIPR, read-out: M1 Pot.
[2] = Table 1, CHOnfat/hM1 cells, FLIPR, read-out: M1 Pot.
[3] = Table 3, inflection point calculated from the FLIPR values, read-out: IP Value

| SMILES | EC50 [1] | EC50 [2] | further results |
| --- | --- | --- | --- |
| CC1(O)CCN(Cc2cc3c(c4ccccc24)CN(C2CCCCC2O)C3=O)CC1 (centres unmarked) [Example 37, 2-(2-hydroxycyclohexyl)-5-[(4-hydroxy-4-methylpiperidin-1-yl)methyl]-1,2-dihydro-3H-benzo[e]isoindol-3-one] |  | > 1100 nM |  |
| O=C1c2cc(CN3CCc4ccccc4C3c3ccncc3)c3ccccc3c2CN1c1ccccc1F (centres unmarked) [Example 65, 2-(2-fluorophenyl)-5-{[1-(pyridin-4-yl)-3,4-dihydroisoquinolin-2(1H)-yl]methyl}-1,2-dihydro-3H-benzo[e]isoindol-3-one] |  | 1370 nM |  |
| CC1c2c(cc(CN3CCC(C#N)(c4ccccc4)CC3)c3cccnc23)C(=O)N1C1CCCCC1O (centres unmarked) [Example 138, 1-{[8-(2-hydroxycyclohexyl)-9-methyl-7-oxo-8,9-dihydro-7H-pyrrolo[3,4-h]quinolin-5-yl]methyl}-4-phenylpiperidine-4-carbonitrile] | 69 nM |  |  |
| CC1c2c(cc(CN3CCC(C#N)(c4ccccc4)CC3)c3cccnc23)C(=O)N1C1CCCCC1O (centres unmarked) [Example 137, 1-{[8-(2-hydroxycyclohexyl)-9-methyl-7-oxo-8,9-dihydro-7H-pyrrolo[3,4-h]quinolin-5-yl]methyl}-4-phenylpiperidine-4-carbonitrile] | 480 nM |  |  |
| CC1c2c(cc(CN3CCC(C#N)(c4ccccn4)CC3)c3ccccc23)C(=O)N1[C@H]1CCCC[C@@H]1O (stereo partly drawn) [Example 3, 1-({2-[(1S,2S)-2-Hydroxycyclohexyl]-1-methyl-3-oxo-2,3-dihydro-1H-benzo[e]isoindol-5-yl}methyl)-4-(pyridine-2-yl)piperidine-4-carbonitrile] |  |  | EC50 [3]: 19 nM |
| C=Cc1cccc(C2(C#N)CCN(Cc3cc4c(c5ccccc35)CN([C@H]3CCCC[C@@H]3O)C4=O)CC2)n1 [Example 49, 4-(6-ethenylpyridin-2-yl)-1-({2-[(1S,2S)-2-hydroxycyclohexyl]-3-oxo-2,3-dihydro-1H-benzo[e]isoindol-5-yl}methyl)piperidine-4-carbonitrile] |  | 114 nM |  |
| CN(C)C(=O)Oc1cccc(N2Cc3c(cc(CN4CCC(F)(C#N)CC4)c4cccnc34)C2=O)c1 [Example 129, 3-{5-[(4-cyano-4-fluoropiperidin-1-yl)methyl]-7-oxo-7,9-dihydro-8H-pyrrolo[3,4-h]quinolin-8-yl}phenyl dimethyl carbamate] |  |  | EC50 (M1 Pot., Table 2, CHOnfat/hM1 cells, FLIPR): 2170 nM |
| O=C1c2cc(CN3CCC(O)(c4ccncc4)CC3)c3cccnc3c2CN1C1CCCCC1O (centres unmarked) [Example 144, 8-(2-hydroxycyclohexyl)-5-[(4-hydroxy-4-pyridin-4-ylpiperidin-1-yl)methyl]-8,9-dihydro-7H-pyrrolo[3,4-h]quinolin-7-one] | 510 nM |  |  |
| O=C1c2cc(CN3CCC(F)(F)CC3)c3cccnc3c2CN1[C@H]1COCC[C@@H]1O [Example 8, 1,5-Anhydro-2,4-dideoxy-2-{5-[(4,4-difluoropiperidin-1-yl)methyl]-7-oxo-7,9-dihydro-8H-pyrrolo[3,4-h]quinolin-8-yl}-L-threo-pentitol] |  |  | EC50 [3]: 41 nM |
| O=C1c2cc(CN3CC(O)C(F)C3)c3ccccc3c2CN1C1CCCCC1O (centres unmarked) [Example 28, 5-[(3-fluoro-4-hydroxypyrrolidin-1-yl)methyl]-2-(2-hydroxycyclohexyl)-1,2-dihydro-3H-benzo[e]isoindol-3-one] |  | 1200 nM |  |
| CC1c2c(cc(CN3CCC(C#N)(c4ccccn4)CC3)c3ccccc23)C(=O)N1[C@H]1CCCC[C@@H]1O (single isomer, unassigned) [Example 45] |  | 272 nM |  |

Further lines, with some results ahead:

| EC50 [1] | EC50 [2] | SMILES | further results |
| --- | --- | --- | --- |
| 110 nM |  | O=C1c2cc(CN3CCN(c4ccncc4)CC3)c3cccnc3c2CN1C1CCCCC1O (centres unmarked) [Example 160, 8-(2-hydroxycyclohexyl)-5-[(4-pyridin-4-ylpiperazin-1-yl)methyl]-8,9-dihydro-7H-pyrrolo[3,4-h]quinolin-7-one] |  |
| 11 nM |  | C#CC1(F)CCN(Cc2cc3c(c4ncccc24)CN([C@H]2CCCC[C@@H]2O)C3=O)CC1 [Example 103, 5-[(4-ethynyl-4-fluoropiperidin-1-yl)methyl]-8-[(1S,2S)-2-hydroxycyclohexyl]-8,9-dihydro-7H-pyrrolo[3,4-h]quinolin-7-one] |  |
|  | 150 nM | COc1ccc(N2CCN(Cc3cc4c(c5ccccc35)CN([C@H]3CCCC[C@@H]3O)C4=O)C(C)C2)cc1 (stereo partly drawn) [Example 70, 2-[(1S,2S)-2-hydroxycyclohexyl] 5-{[4-(4-methoxyphenyl)-2-methylpiperazin-1-yl]methyl}-1,2-dihydro-3H-benzo[e]isoindol-3-one] |  |
| 70 nM |  | CC1c2c(cc(CN3CCC(F)CC3)c3cccnc23)C(=O)N1[C@H]1CCCC[C@@H]1O (stereo partly drawn) [Example 93, 5-[(4-fluoropiperidin-1-yl)methyl]-8-[(1S,2S)-2-hydroxycyclohexyl]-9-methyl-8,9-dihydro-7H-pyrrolo[3,4-h]quinolin-7-one] |  |
| 33 nM |  | CC#CC1(F)CCN(Cc2cc3c(c4ncccc24)CN([C@H]2CCCC[C@@H]2O)C3=O)CC1 [Example 131, 5-[(4-fluoro-4-prop-1-yn-1-ylpiperidin-1-yl)methyl]-8-[(1S,2S)-2-hydroxycyclohexyl]-8,9-dihydro-7H-pyrrolo[3,4-h]quinolin-7-one] |  |
| 15 nM |  | O=C1c2cc(CN3CCN(c4ccccn4)CC3)c3cccnc3c2CN1C1CCCCC1O (centres unmarked) [Example 165, 8-(2-hydroxycyclohexyl)-5-[(4-pyridin-2-ylpiperazin-1-yl)methyl]-8,9-dihydro-7H-pyrrolo[3,4-h]quinolin-7-one] |  |
| 4000 nM |  | CCN(CC)Cc1cc2c(c3ncccc13)CN(C1CCCCC1O)C2=O (centres unmarked) [Example 88, 5-[(diethylamino)methyl]-8-(2-hydroxycyclohexyl)-8,9-dihydro-7H-pyrrolo[3,4-h]quinolin-7-one] |  |
| 100 nM |  | COc1ccc(N2CCN(Cc3cc4c(c5ncccc35)C(C)N(C3CCCCC3O)C4=O)CC2)cc1 (centres unmarked) [Example 170, 8-(2-hydroxycyclohexyl)-5-{[4-(4-methoxyphenyl)piperazin-1-yl]methyl}-9-methyl-8,9-dihydro-7H-pyrrolo[3,4-h]quinolin-7-one] |  |
| 12 nM |  | CC1c2c(cc(CN3CCC(F)(F)CC3)c3cccnc23)C(=O)N1[C@@H]1CCOC[C@@H]1O (stereo partly drawn) [Example 107, 1,5-anhydro-3,4-dideoxy-3-{5-[(4,4-difluoropiperidin-1-yl)methyl]-9-methyl-7-oxo-7,9-dihydro-8H-pyrrolo[3,4-h]quinolin-8-yl}-D-erythro-pentitol] |  |
